Values quoted from earlier work, collected in patent US6392068B1, “Carborane containing cholesterol, a new type of molecule for targeted boron drug delivery” (The University of Georgia Research Foundation, Inc., priority 1999, dated 2002).

Tested on: tumor cell
Details: in-vitro; background statement

## Na2B12H11 SH [BSH]
  retention in the tumor cell: does not stay in the tumor cell but is easily washed out
